Reference: patent US7309719B1, “Stabilized pharmaceutical preparation of gamma-aminobutyric acid derivatives and process for preparing the same” (Warner Lambert Company, LLC, priority 1998, dated 2007)

Key:
[1] = Dehydration reaction (lactam formation) in a dried state at 105° C.; assay type: physicochemical; details: 105° C. over 2-3 hours
Excerpt: In other words, in the 4-amino-3-substituted-butanoic acid derivative wherein the substituent at the 3-position thereof has a bulky structure, the dehydration reaction could easily be brought about between the amino group and the carboxyl group within the molecule.

[2] = Stability of baclofen granular powders (wet admixture), dehydrated condensate content by HPLC (Example 11); assay type: physicochemical; details: solid
Experimental: In this Example and the following Example, a content of the dehydrated condensate thus formed is expressed in terms of % by weight, based on baclofen.
In this Example, the stabilization of baclofen according to the wet admixture with the amino acid was tested for the following Samples (ag) and (ah) of baclofen.
1) Sample (ag) was prepared by wetting 200 mg of baclofen crystals with 0.1 mL of water, forming granular powders by means of a mortar and then drying.
2) Sample (ah) was prepared by wetting 200 mg of baclofen crystals with 0.1 mL of a 2% aqueous solution of L-isoleucine, forming granular powders by means of a mortar and then drying. • Samples (ag) and (ah) prepared as described above and untreated baclofen crystals were stored under the conditions as defined in the following Table 13 and then a content of the dehydrated condensate formed in each of the samples was determined by means of HPLC.

[3] = Stability of compacted pregabalin powders, dehydrated condensate content by HPLC (Example 9); assay type: physicochemical; details: solid
Experimental: 3) Sample (v) was prepared by dissolving 1 g of pregabalin crystals and 1.47 g of L-valine in water to make up a total volume of 50 mL. • Samples (t), (u) and (v) prepared as described above were stored under the conditions as defined in the following Table 10 and then a content of the dehydrated condensate formed in each of the aqueous solutions was determined by means of HPLC. In this Example and the following Examples, a content of the dehydrated condensate formed is expressed in terms of % by weight, based on pregabalin.
This Example will illustrate the preparation of a stabilized solid pharmaceutical preparation of pregabalin by the addition of the amino acid to pregabalin according to the dry admixture.
1) 1 g of pregabalin crystals was prepared to powdery Sample (aa) in a compacted state by means of a mortar.
2) 1 g of pregabalin crystals was blended with 10 mg of magnesium stearate by means of a mortar to prepare mixed powdery Sample (ab) in a compacted state.
3) 1 g of pregabalin crystals was blended with 30 mg of talc by means of a mortar to prepare mixed powdery Sample (ac) in a compacted state.
4) 1 g of pregabalin crystals was blended with 30 mg of L-leucine by means of a mortar to prepare mixed powdery Sample (ad) in a compacted state. • Samples (aa), (ab), (ac) and (ad) prepared as described above and untreated pregabalin crystals were stored under the conditions as defined in the following Table 11 and then a content of the dehydrated condensate formed in each of the samples was determined by means of HPLC.

[4] = Stabilizing effect of amino acids on 4-amino-3-substituted-butanoic acid derivatives

## NCC(O)CC(=O)O (stereo not shown) [4-amino-3-hydroxy-butanoic acid]
[1]
  dehydration reaction (formation of the corresponding lactam form): not brought about

## NCC(CC(=O)O)c1ccc(Cl)cc1 (stereo not shown) [Untreated Baclofen]
[2]; 60° C./1 week (sealed)
  content of the dehydrated condensate: 0.36 % by weight, based on baclofen
[2]; 60° C./2 weeks (sealed)
  content of the dehydrated condensate: 0.57 % by weight, based on baclofen
[2]; 60° C./3 weeks (sealed)
  content of the dehydrated condensate: 0.70 % by weight, based on baclofen
[2]; When initiated
  content of the dehydrated condensate: 0.10 % by weight, based on baclofen

## CC(C)CC(CN)CC(=O)O (stereo not shown) [Untreated Pregabalin, 5-methyl-3-aminomethyl-hexanoic acid]
[3]; 60° C./2 weeks (sealed)
  content of the dehydrated condensate: 0.001 % by weight, based on pregabalin
[3]; 80° C./1 week (sealed)
  content of the dehydrated condensate: 0.006 % by weight, based on pregabalin
[3]; When initiated
  content of the dehydrated condensate: <0.001 % by weight, based on pregabalin

## O=C(O)[C@@H]1C[C@@H](O)CN1 [hydroxyproline]
[4]
  stabilizing effect as stabilizer for a 4-amino-3-substituted-butanoic acid derivative: weak stabilizing effect

## NCCCC(=O)O [γ-aminobutyric acid]
[1]
  dehydration reaction (formation of the corresponding lactam form): not brought about
